Results as given in patent US5563142A, “Diaromatic substituted compounds as anti-HIV-1 agents” (The Upjohn Company, priority 1994, dated 1996).
pEC50: −log10 of the molar value. Like-named read-outs stand apart in the source and are kept apart here.

Legend:
[1] = target: T1, viral reverse transcriptase (Human immunodeficiency virus type 1 group M subtype B, UniProt P04585); assay: Viral reverse transcriptase inhibition, cell free assay; type: biochemical, human immunodeficiency virus (HIV-1)
T1 construct: Viral reverse transcriptase is found in extracts from bacterial clones; made in house; host or cells: Escherichia coli (extracts of bacterial clones, by the procedure of Larder et al., EMBO J. 6:3133-3137, 1987)
Excerpt: The utility of the diaromatic substituted piperazines (III), the anti-AIDS piperazines (IV) and the indoles (V) of this invention can be determined by their ability to inhibit viral reverse transcriptase, an enzyme essential for human immunodeficiency virus replication. This enzyme has characteristics which differentiate it from other known cellular polymerases and it is a unique enzyme which is not found in uninfected cells. Viral reverse transcriptase is found in extracts from bacterial clones prepared according to the procedure described in AIDS Virus Reverse Transcriptase defined by high level expression in Escherichia coli, EMBO J. 6:3133-3137 (1987). Inhibition of this enzyme is determined in a cell free assay which measures the level of radioactive precursors incorporated into DNA. Extracts prepared according to the procedure of Science, 1125-1129 (1981) are incubated in a mixture of inhibitor, 20 mM dithiothreitol, 60 mM sodium chloride, 0.05% NP-40, 10 mM magnesium chloride, 50 mM Tris pH 8.3, 10 μM [^35 S]-labeled deoxynuleoside-5'-triphosphate, 10 μg/ml RNA template (poly rC or poly rG) and 5 μg/ml DNA primer (oligo dG or oligo dT) for 30 minutes at 37° C. Incorporation of radio-labeled percursor is determined by spotting aliquots of the reaction mixture on DE81 paper, washing the papers to remove unincorporated percursor, drying and determining counts. The results (IC50 means the concentration, in μM of drug, required to inhibit the reverse transcriptase activity to the extent of 50%) of various assay(s) are combined and reported as % inhibition and IC50 (calculated).
^1 Viral reverse transcriptase is found in extracts from bacterial
clones prepared according to the procedure described by Larder, B.,
Purifoy D., Powell, K. and Darby, G., AIDS virus reverse transcriptase
defined by high level expression in Escherichia coli., EMBO J. 6,
3133-3137 (1987). Inhibition of this enzyme is determined in a cell free
assay which measures the level of radioactive precursors incorporated int
DNA. Extracts prepared according to the procedure of Kleid, D. G., et
al., Science, 1125-1129 (1981) are incubated in a mixture of inhibitor, 2
mM dithiothreitol, 60 mM sodium chloride, 0.05% NP40, 10 mM magnesium
chloride, 50 mM Tris pH 8.3, 10 μM [^35 Slabeled
deoxynucleoside5triphosphate, 10 μg/ml RNA template (poly rC or poly
rG) and 5 μg/ml DNA primer (oligo dG or oligo dT) for 15 minutes at
37°. Incorporation of radio labeled precursor is determined by
harvesting the trichloroacetic acid precipitated reaction mixtures on
glass fiber filters, drying, and determining counts. The results of
various assays are combined and reported as % inhibition at a 100 μM

[2] = tested on: HIV in primary human peripheral blood lymphocytes; assay: Primary PBL assay: inhibition of viral replication (p24 & RNA); type: cell-based; details: Human immunodeficiency virus 1, Lymphocyte, primary human lymphocytes infected with HIV, days three and four, read-out: PBL INHIBITION OF VIRAL REPLICATION (p24 & RNA) ED50
Experimental: ^3 The utility of the compounds of the invention is further
infection in primary peripheral blood lymphocytes (primary PBL assay). Th
primary PBL assay offers the following advantages:
(a) The assays are performed with primary human lymphocytes. Thereby,
undesired testing of transformed cell lines is avoided in which host cell
and virus may have undergone processes of mutual adaptation. Performance
of cell culture in serum containing media closely mimics the in vivo
situation. (b) The primary PBL assay distinguishes between true antiviral
effect which is due to the drug and cytostatic/cytotoxic reactions. (c)
Viral replication is precisely followed by kinetic measurement of viral
nucleic acids and proteins. (d) Nucleic acids (total HIVRNA intra and
extracellular) and protein (secreted p24) are measured in parallel which
permits one to differentiate between the compound's effect on virus
replication and on the expression of viral proteins. This leads to
additional information regarding the efficacy of the test compound. (e)
Tolerance of the cell culture against low amounts of organic solvents als
permits the investigation of hydrophobic substances. (f) The dose of the
drug causing half maximal suppression of virus replication is determined.
(g) The screening system is standardized and automated to a high degree.
The primary PBL assay uses the following procedure:
Effects of the compounds of the invention on cell proliferation are determined by lymphocyte proliferation assays. Starting with a 100 micromolar solution, the compound is serially diluted 10 fold. One tenth of the concentration of a compound causing half maximal inhibition of cellular proliferation is employed for all subsequent testing.
Peripheral human lymphocytes are isolated by density gradient centrifugation. After stimulation by mitogen the cells are infected with a standardized preparation of HIV. Subsequently, the infected cells are cultured in the presence of the drug for four days. Individual cultures are established to measure viral replication three and four days following infection. Untreated cells and AZT-treated cells are included as controls in parallel with the drugs under investigation.
The amount of viral core protein p24 synthesized and release by the infected cells is determined in the supernatant by the capture-ELISA technique on days three and four. By comparing with a standard preparation, the amount of protein produced by the virus infected cells is quantified.
The total amount of viral RNA synthesized by the infected lymphocytes is determined by a special nucleic acid hybridization on days three and four of culture. By including a standard preparation of HIV-RNA the amount of synthesized RNA is quantified.
In addition, viability of HIV-infected cells is determined in parallel with assays for viral p24 and RNA. In order to evaluate the half maximal antiviral effect of the drug, a concentration dependency of the drug action is measured.
Numerous examples of the compounds of the invention are assayed according to this procedure. The anti-HIV activity, as measured by the inhibition of the release of core p24 protein in HIV infected human lymphocytes, is used to calculate ED50 -antiviral (the concentration required to give a 50% reduction in p24 synthesis).

[3] = read-out: RT % INHIBITION (100 μM), 100 μM, poly rC or poly rG template

`CC(C)Nc1ccnnc1N1CCN(C(=O)c2cc3ccccc3[nH]2)CC1` [Example 49, 1-(Indolyl-2-carbonyl)-4-[4-(1-methylethylamino)-3-pyridazinyl]piperazine, methane sulfonate] was tested. Which inhibition at 100 µM [1, 3] did it give?
Its inhibition at 100 µM is 84 to 94%.

And the pEC50 [2]?
Its pEC50 is at least 7.00.

Which inhibition at 100 µM [1, 3] does the source give for `O=C(c1cc2ccccc2[nH]1)N1CCN(c2ncccc2N2CCCC2)CC1` [Example 76, 1-[Indolyl-2-carbonyl]-4-[3-(1-pyrrolidinyl)-2-pyridinyl]piperazine] here?
The inhibition at 100 µM was 65 to 76%.

What about the pEC50 [2] of the same compound?
Its pEC50 is 6.00 to 7.00.

How did the inhibition at 100 µM [1, 3] turn out when `CC(C)Nc1cccnc1N1CCN(C(=O)c2cc3ccc(F)cc3[nH]2)CC1` [Example 132] was run?
The inhibition at 100 µM was 95 to 98%.

And the pEC50 [2]?
The pEC50 was 8.00 to 9.00.

`CNc1cccnc1N1CCN(C(=O)c2cc3ccccc3[nH]2)CC1` [Example 65, 1-(Indolyl-2-carbonyl)-4-[3-(methylamino)-2-pyridinyl]piperazine] was tested. Which inhibition at 100 µM [1, 3] did it give?
Its inhibition at 100 µM is 81 to 93%.

And the pEC50 [2]?
The pEC50 was at least 9.00.

Which inhibition at 100 µM [1, 3] does the source give for `O=C(c1cc2ccccc2[nH]1)N1CCN(c2ncccc2NC2CCCC2)CC1` [Example 56, 1-(Indolyl-2-carbonyl)-4-(3-cyclopentylamino-2-pyridinyl)piperazine] here?
The inhibition at 100 µM was 79 to 93%.

And the pEC50 [2]?
The pEC50 was 6.00 to 7.00.

What does the source list for `CC(C)Nc1cccnc1N1CCN(C(=O)c2cc3cc([N+](=O)[O-])ccc3[nH]2)CC1` [Example 103, 1-[5-Nitroindolyl-2-carbonyl]-4-[3-(1-methylethylamino)-2-pyridinyl]piperazine]?
inhibition at 100 µM [1, 3]: 72%; pEC50 [2]: > 8.00

With `CC(=O)Nc1ccc2[nH]c(C(=O)N3CCN(c4ncccc4NC(C)C)CC3)cc2c1` [Example 104, 1-[5-Acetamidoindolyl-2-carbonyl]-4-[3-(1-methylethylamino)-2-pyridinyl]piperazine] as the compound, how does the inhibition at 100 µM [1, 3] read?
Its inhibition at 100 µM is 92 to 96%.

And the pEC50 [2]?
Its pEC50 is 8.00.

How did the inhibition at 100 µM [1, 3] turn out when `Cc1c(C(=O)N2CCN(c3ncccc3NC(C)C)CC2)[nH]c2ccccc12` [Example 73, 1-[3-methylindolyl-2-carbonyl]-4-[3-(1-methylethylamino)-2-pyridinyl]piperazine] was run?
The inhibition at 100 µM was 94 to 95%.

What about the pEC50 [2] of the same compound?
Its pEC50 is over 9.00.

`Cc1ccc2[nH]c(C(=O)N3CCN(c4ncccc4NC(C)C)CC3)cc2c1` [Example 89, 1-[5-Methylindolyl-2-carbonyl]-4-[3-(1-methylethylamino)-2-pyridinyl]piperazine] was tested. Which inhibition at 100 µM [1, 3] did it give?
The inhibition at 100 µM was 61 to 74%.

And the pEC50 [2]?
The pEC50 was 7.00.

`COc1cc2[nH]c(C(=O)N3CCN(c4ncccc4NC(C)C)CC3)cc2cc1Br` [Example 94, 1-[5-Bromo-6-methoxyindolyl-2-carbonyl]-4-[3-(1-methylethylamino)-2-pyridinyl]piperazine] was tested. Which inhibition at 100 µM [1, 3] did it give?
Its inhibition at 100 µM is 85%.

And the pEC50 [2]?
The pEC50 was 7.00 to 8.00.

How did the inhibition at 100 µM [1, 3] turn out when `CC(C)Nc1cccnc1N1CCN(C(=O)c2cc3ccc(N(C)C)cc3[nH]2)CC1` [Example 95, 1-[6-(N,N-Dimethylamino)indolyl-2-carbonyl]-4-[3-(1-methylethylamino)-2-pyridinyl]piperazine] was run?
The inhibition at 100 µM was 81 to 93%.

What about the pEC50 [2] of the same compound?
The pEC50 was over 9.00.

With `COc1ccc2cc(C(=O)N3CCN(c4ncccc4NC(C)C)CC3)[nH]c2c1` [Example 87, 1-[6-Methoxyindolyl-2-carbonyl]-4-[3-(1-methylethylamino)-2-pyridinyl]-piperazine] as the compound, how does the inhibition at 100 µM [1, 3] read?
The inhibition at 100 µM was 96 to 98%.

What about the pEC50 [2] of the same compound?
The pEC50 was 8.00.

Which results are given for `CC(C)Nc1cccnc1N1CCCN(C(=O)c2cc3cc(F)ccc3[nH]2)CC1` [Example 84]?
inhibition at 100 µM [1, 3]: 97%; pEC50 [2]: > 9.00

Which results are given for `CC(C)Nc1cccnc1N(C)CCCN(C)C(=O)c1cc2ccccc2[nH]1` [Example 53, N,N'-Dimethyl-N-(indolyl-2-carbonyl)-N'-[3-(1-methylethyl-amino)-2-pyridyl]-1,3-propanediamine]?
inhibition at 100 µM [1, 3]: 82 to 94%; pEC50 [2]: 8.00 to 9.00

How did the inhibition at 100 µM [1, 3] turn out when `COc1ccc2cc(C(=O)N3CCN(c4ncccc4NC(C)C)CC3)[nH]c2c1Br` [Example 92, 1-[7-Bromo-6-methoxyindolyl-2-carbonyl]-4-[3-(1-methylethyl-amino)-2-pyridinyl]piperazine] was run?
The inhibition at 100 µM was 94%.

What about the pEC50 [2] of the same compound?
The pEC50 was 6.00 to 7.00.

With `O=C(c1cc2cc(F)ccc2[nH]1)N1CCN(c2ncccc2NCC(F)(F)F)CC1` [Example 34, 1-[5-Fluoroindolyl-2-carbonyl]-4-[3-(2,2,2-trifluoroethylamino)-2-pyridinyl]piperazine] as the compound, how does the inhibition at 100 µM [1, 3] read?
Its inhibition at 100 µM is 41%.

What about the pEC50 [2] of the same compound?
Its pEC50 is over 5.00.

What does the source list for `CC(C)Nc1cccnc1N1CCN(C(=O)c2cc3cc(N)ccc3[nH]2)CC1` [Example 101, 1-[5-Aminoindolyl-2-carbonyl]-4-[3-(1-methylethylamino)-2-pyridinyl]-piperazine]?
inhibition at 100 µM [1, 3]: 93 to 96%; pEC50 [2]: 8.00

Which results are given for `COc1cccc2[nH]c(C(=O)N3CCN(c4ncccc4NC(C)C)CC3)cc12` [Example 88, 1-[4-Methoxyindolyl-2-carbonyl]-4-[3-(1-methylethylamino)-2-pyridinyl]piperazine]?
inhibition at 100 µM [1, 3]: 56 to 88%; pEC50 [2]: 7.00

For `COCC(C)Nc1cccnc1N1CCN(C(=O)c2cc3cc(F)ccc3[nH]2)CC1` (stereo not shown) [Example 106, 1-[5-Fluoroindolyl-2-carbonyl]-4-[3-(2-methoxy-1-methylethylamino)-2-pyridinyl]piperazine], which inhibition at 100 µM [1, 3] is on record?
Its inhibition at 100 µM is 76 to 81%.

And the pEC50 [2]?
Its pEC50 is at least 9.00.

`CC(C)Nc1cccnc1N1CCN(C(=O)c2cc3cc(NS(C)(=O)=O)ccc3[nH]2)CC1` [Example 105, 1-[5-Methanesulfonamidoindolyl-2-carbonyl]-4-[3-(1-methylethylamino)-2-pyridinyl]piperazine] was tested. Which inhibition at 100 µM ([1]; read-out: RT % INHIBITION (100 μM)) did it give?
The inhibition at 100 µM was 82 to 96%.

What about the pEC50 [2] of the same compound?
Its pEC50 is at least 9.00.

Which results are given for `CC(C)Nc1ccc(F)cc1N1CCN(C(=O)c2cc3ccccc3[nH]2)CC1` [Example 75, 1-[Indolyl-2-carbonyl]-4-[2-(1-methylethylamino)-5-fluorophenyl]piperazine]?
inhibition at 100 µM [1, 3]: 77%; pEC50 [2]: 7.00 to 8.00

`CC(C)Nc1cccnc1N(C)CCN(C)C(=O)c1cc2ccccc2[nH]1` [Example 52, N,N'-Dimethyl-N-(indolyl-2-carbonyl)-N'-(3-(1-methylethylamino)pyrid-2-yl)ethylenediamine] was tested. Which inhibition at 100 µM [1, 3] did it give?
Its inhibition at 100 µM is 89 to 94%.

And the pEC50 [2]?
Its pEC50 is 6.00 to 7.00.

What does the source list for `CC(C)Nc1nccnc1N1CCN(C(=O)c2cc3cc(F)ccc3[nH]2)CC1` [Example 47, 1-(5-Fluoroindolyl-2-carbonyl)-4-[3-(1-methylethylamino)-2-pyrazinyl]piperazine]?
inhibition at 100 µM [1, 3]: 91%; pEC50 [2]: 8.00 to 9.00
